The NIST ThermoML archive (doi:10.1021/je020189p)
Values joined by “and” are separate entries in the source; they are usually repeats but may differ in a detail not shown here. Identical values can stand only once.

Details: Crystal

[Br-].[Br-].[Br-].[Tb+3] [terbium tribromide]
Details	vapor or sublimation pressure
904 K	4.79e-05 kPa
908 K	4.68e-05 kPa
912 K	3.8e-05 kPa
915 K	7.59e-05 kPa and 4.79e-05 kPa and 4.17e-05 kPa
917 K	8.13e-05 kPa
920 K	8.51e-05 kPa and 8.32e-05 kPa and 4.79e-05 kPa
921 K	7.59e-05 kPa
922 K	8.32e-05 kPa and 6.17e-05 kPa
924 K	0.000105 kPa
925 K	7.24e-05 kPa
928 K	9.55e-05 kPa
930 K	0.000132 kPa and 8.51e-05 kPa
931 K	0.00012 kPa
933 K	9.55e-05 kPa
934 K	8.51e-05 kPa and 0.00012 kPa
935 K	0.000151 kPa
937 K	0.000123 kPa and 0.000138 kPa
939 K	0.000151 kPa
940 K	0.000182 kPa [middle of 4 runs]
941 K	0.000115 kPa
943 K	0.000141 kPa
944 K	0.000209 kPa and 0.000186 kPa
945 K	0.000186 kPa
947 K	0.000214 kPa
948 K	0.00024 kPa and 0.000141 kPa
950 K	0.000182 kPa and 0.000166 kPa
954 K	0.000295 kPa
955 K	0.000191 kPa and 0.000269 kPa
956 K	0.000229 kPa
957 K	0.000331 kPa and 0.000229 kPa and 0.000275 kPa
958 K	0.000331 kPa and 0.000288 kPa
960 K	0.000363 kPa and 0.000316 kPa
962 K	0.000347 kPa [middle of 4 runs]
964 K	0.000288 kPa and 0.000389 kPa
968 K	0.000295 kPa
969 K	0.000363 kPa
970 K	0.000501 kPa
971 K	0.000355 kPa
973 K	0.000537 kPa and 0.000501 kPa
974 K	0.000575 kPa and 0.000355 kPa
975 K	0.000427 kPa
976 K	0.000501 kPa
977 K	0.000427 kPa and 0.000575 kPa
978 K	0.000617 kPa
980 K	0.000427 kPa
981 K	0.000661 kPa
983 K	0.000537 kPa and 0.000741 kPa
988 K	0.000871 kPa
989 K	0.000832 kPa
990 K	0.000912 kPa
991 K	0.001 kPa
992 K	0.00107 kPa
993 K	0.00107 kPa and 0.001 kPa
999 K	0.00115 kPa
1000 K	0.00126 kPa
1002 K	0.00132 kPa
1003 K	0.00138 kPa
1004 K	0.00148 kPa and 0.00158 kPa and 0.00129 kPa
1007 K	0.00155 kPa
1012 K	0.00174 kPa
1014 K	0.00166 kPa and 0.00209 kPa
1015 K	0.002 kPa and 0.00224 kPa
1019 K	0.00257 kPa
1020 K	0.00224 kPa
1024 K	0.0024 kPa
1025 K	0.00263 kPa and 0.00295 kPa
1030 K	0.00295 kPa
1032 K	0.00295 kPa
1035 K	0.00331 kPa and 0.00417 kPa
1039 K	0.00398 kPa
1042 K	0.00537 kPa
1045 K	0.00468 kPa
1047 K	0.00575 kPa
1049 K	0.00575 kPa
1051 K	0.00676 kPa
1054 K	0.00646 kPa
1058 K	0.00708 kPa
1059 K	0.00851 kPa and 0.00832 kPa
1064 K	0.00912 kPa
1067 K	0.01 kPa
1068 K	0.011 kPa and 0.0115 kPa
1071 K	0.0112 kPa
1076 K	0.0141 kPa and 0.0129 kPa
1078 K	0.0141 kPa
1085 K	0.0182 kPa
1088 K	0.0174 kPa and 0.0158 kPa
1099 K	0.0229 kPa
1108 K	0.0288 kPa
